Consider twelve molecules from PMC6911684 (Bioorganic & medicinal chemistry letters, 2019).

Experiment [1] addresses T1, GGTase II (Homo sapiens, UniProt P53611+Q92696).
T1 sequence (Q92696 1-567): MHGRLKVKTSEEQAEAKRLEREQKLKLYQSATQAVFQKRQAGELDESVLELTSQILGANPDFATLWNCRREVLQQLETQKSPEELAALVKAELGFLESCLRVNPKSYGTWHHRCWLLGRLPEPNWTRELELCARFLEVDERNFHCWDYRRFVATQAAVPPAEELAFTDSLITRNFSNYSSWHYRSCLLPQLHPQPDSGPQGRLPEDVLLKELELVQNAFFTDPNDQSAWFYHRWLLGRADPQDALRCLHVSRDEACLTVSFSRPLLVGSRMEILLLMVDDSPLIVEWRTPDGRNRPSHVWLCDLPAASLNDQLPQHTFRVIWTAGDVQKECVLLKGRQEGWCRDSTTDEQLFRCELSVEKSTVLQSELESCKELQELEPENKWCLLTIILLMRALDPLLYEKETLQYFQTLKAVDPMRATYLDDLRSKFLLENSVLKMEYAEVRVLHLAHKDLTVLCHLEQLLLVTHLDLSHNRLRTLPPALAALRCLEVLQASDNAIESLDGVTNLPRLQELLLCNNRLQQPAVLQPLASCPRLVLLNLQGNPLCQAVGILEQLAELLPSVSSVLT
T1 sequence (P53611 1-331): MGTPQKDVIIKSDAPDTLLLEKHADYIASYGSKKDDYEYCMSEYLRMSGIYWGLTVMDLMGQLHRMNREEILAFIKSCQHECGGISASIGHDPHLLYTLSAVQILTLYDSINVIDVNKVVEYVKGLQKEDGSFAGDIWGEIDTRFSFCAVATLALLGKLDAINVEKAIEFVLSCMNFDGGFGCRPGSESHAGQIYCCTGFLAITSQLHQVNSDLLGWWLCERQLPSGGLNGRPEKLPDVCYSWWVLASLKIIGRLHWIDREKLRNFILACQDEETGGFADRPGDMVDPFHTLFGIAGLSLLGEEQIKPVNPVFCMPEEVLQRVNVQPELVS
As to conditions: cited from earlier work.

In experiment [2] the test system is myeloma cells. The conditions noted are these: cited from earlier work.
The target of experiment [3] is GGTase I (Homo sapiens, UniProt P49354+P53609). The experiment is described as follows: GGTase I in vitro enzyme assay. The format is biochemical.
Experiment [4] deals with RPMI-8226 cells. Nature of the experiment: Cellular protein prenylation assays. The format is cell-based, human.
Experiment [5] has as its target FTase (Homo sapiens, UniProt P49354+P49356). The experiment is described as follows: FTase in vitro enzyme assay. The format is biochemical.
Experiment [6] deals with T1, GGTase II. Nature of the experiment: GGTase II in vitro enzyme assay. The format is biochemical.
Experiment [7] deals with T2, FDPS (Homo sapiens, UniProt P14324).
T2 sequence (P14324 1-419): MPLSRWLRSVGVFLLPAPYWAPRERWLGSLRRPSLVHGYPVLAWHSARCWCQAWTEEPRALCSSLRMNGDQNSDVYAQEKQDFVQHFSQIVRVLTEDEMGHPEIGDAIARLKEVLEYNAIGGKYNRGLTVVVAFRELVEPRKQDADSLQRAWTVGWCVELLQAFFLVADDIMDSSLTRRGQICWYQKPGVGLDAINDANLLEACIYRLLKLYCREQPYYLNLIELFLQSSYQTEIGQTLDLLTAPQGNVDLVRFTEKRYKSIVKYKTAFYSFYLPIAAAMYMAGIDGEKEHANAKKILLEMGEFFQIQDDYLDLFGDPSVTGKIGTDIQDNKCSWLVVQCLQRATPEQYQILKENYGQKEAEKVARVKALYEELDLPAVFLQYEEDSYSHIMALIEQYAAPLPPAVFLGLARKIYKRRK
Nature of the experiment: FDPS in vitro enzyme assay. The format is biochemical. The conditions noted are these: ratio of GGDPS and FDPS IC50.

Experiment [8] has as its system RPMI-8226 cells. The conditions noted are these: HMG-CoA reductase inhibitor, 10 μM in Figure 2; cited from earlier work.
Where [9] appears, read: RPMI-8226 cells, 48 hours, immunoblot.

For the molecule `O=C(O)C(O)(Cc1cnc2ccccn12)P(=O)(O)O` (single isomer, unassigned; (+)) [(+)-enantiomer of 3-IPEHPC], the “Activity relative to the (−)-enantiomer” value in experiment [1] (more active than (−)-enantiomer) is ~ 60 fold.

Regarding `O=C(O)C(O)(Cc1cnc2ccccn12)P(=O)(O)O` (centres unmarked) [Compound 3-IPEHPC], in experiment [1] (more potent than 3-PEHPC), the “Potency as GGTase II inhibitor relative to 3-PEHPC” value was 25 fold.

Regarding `O=C(O)C(O)(Cc1cccnc1)P(=O)(O)O` (centres unmarked) [Compound 3-PEHPC], in experiment [2], the “Concentration required to yield cellular effects” value is listed as more than 5 mM.

Turning to `O=C(O)C(Cn1cnc2ccccc21)P(=O)(O)O` (centres unmarked) [Compound 13], the IC50 (in general, the point on the concentration scale where inhibition reaches its midpoint) in experiment [3] was more than 1000 µM. Also, in experiment [4] (RPMI-8226 cells, 48 hours, ELISA), the “Intracellular light chain levels” value was “increase”. Besides, the “Membrane-bound Rab6 levels” value in experiment [4] (RPMI-8226 cells, 48 hours, detergent fraction, immunoblot) is recorded as “decrease”. In experiment [4] (setting [9]), the “Disruption of H-Ras prenylation (representative farnesylated protein)” value is given as “did not cause disruption” and the “Disruption of Rap1a prenylation (representative substrate for GGTase I)” value is given as “did not cause disruption”.

For `CC(Cn1cnc2ccccc21)(C(=O)O)P(=O)(O)O` (centres unmarked) [Compound 14], the IC50 in experiment [5] and in experiment [3] was more than 1000 µM throughout.

`O=C(O)C(Cn1cnc2cc(F)c(F)cc21)P(=O)(O)O` (centres unmarked) [Compound 15] yielded an IC50 in experiment [6] of more than 1000 µM.

In the case of `Cc1cc2ncn(CC(C(=O)O)P(=O)(O)O)c2cc1C` (centres unmarked) [Compound 16], the IC50 in experiment [5], in experiment [6] and in experiment [3] was more than 1000 µM each time.

Regarding `O=P(O)(O)C(Cn1cnc2ccccc21)P(=O)(O)O` [Compound 17], the IC50 in experiment [6] and in experiment [3] was more than 1000 µM throughout. The “Impairment of protein prenylation in cells” value (“Impairment … in cells” for short) in experiment [4] (RPMI-8226 cells, 48 hours) is reported as “globally disrupts protein prenylation”. In addition, the “Impairment of protein prenylation in combination with lovastatin” value in experiment [4] (co-incubation with lovastatin 0.5 μM, RPMI-8226 cells, 48 hours) is “enhanced the impairment of protein prenylation”.

For the molecule `CC(Cn1cnc2ccccc21)(P(=O)(O)O)P(=O)(O)O` [Compound 18], the “Selectivity for FDPS relative to GGDPS” value in experiment [7] is listed as more than 100. The concentration for half-maximal inhibition (IC50) in experiment [5], in experiment [6] and in experiment [3] was more than 1000 µM each time. For the same molecule, the “Impairment … in cells” value in experiment [4] (RPMI-8226 cells, 48 hours) is reported as “no detectable impairment of protein prenylation”.

For the molecule `O=P(O)(O)C(Cn1cnc2cc(F)c(F)cc21)P(=O)(O)O` [Compound 19], the “Concentration for cellular activity relative to parent compound 17” value in experiment [4] (higher concentration than compound 17) came to 20 fold.

`Cc1cc2ncn(CC(P(=O)(O)O)P(=O)(O)O)c2cc1C` [Compound 20]: the IC50 in experiment [5] and in experiment [3] was more than 1000 µM throughout. The “Impairment … in cells” value in experiment [4] (RPMI-8226 cells, 48 hours) is “no detectable impairment of protein prenylation”.

In the case of `CC[C@H](C)C(=O)O[C@H]1C[C@@H](C)C=C2C=C[C@H](C)[C@H](CC[C@@H]3C[C@@H](O)CC(=O)O3)[C@H]21` [Lovastatin, reference compound], in experiment [8], the “Disruption of prenylation (positive control)” value is “disrupts all prenylation”. In addition, the “Impairment … in cells” value in experiment [4] (lovastatin alone at 0.5 μM, RPMI-8226 cells, 48 hours) is on record as “only minimally impairs protein prenylation”.
